The record followed here is ChEMBL document CHEMBL1136598, “Design, synthesis, and structure-activity relationships of unsubstituted piperazinone-based transition state factor Xa inhibitors” (Bioorg Med Chem Lett, 2003).

Broadly, the half-life is how long it takes for the measured level to halve. The IC50 is the concentration that gives 50% inhibition. A low value points to inhibition by little substance. Broadly, the Ki is a dissociation constant, usually derived from enzyme kinetics or from competition with a known ligand. A higher Ki goes with weaker binding. As a reminder, the Inhibition is the share of the control response that was lost under treatment.

Data set [1] can be described thus: Half life period after intravenous administration in rat. Format: ADME, organism-based. Particulars: in vivo.
Data set [2] addresses Vitamin K-dependent protein C (Homo sapiens, UniProt P04070). The experiment in a line: Inhibitory activity against activated protein C (aPC).
Data set [3] concerns the target T1, Coagulation factor X (Homo sapiens, UniProt P00742). The experiment in a line: In vitro binding affinity towards factor Xa; Not active.
Data set [4] addresses T1, Coagulation factor X. The experiment in a line: (§1) In vitro binding affinity towards factor Xa.
The target in data set [5] is T1, Coagulation factor X. In words: In vitro inhibitory activity against factor Xa.
A short description of data set [6]: Inhibitory activity against Kallikrein.
In another data set the target is Plasminogen (Homo sapiens, UniProt P00747). In words: Inhibitory activity against Plasmin.
Plasminogen, sequence (P00747 97-580 limits assumed): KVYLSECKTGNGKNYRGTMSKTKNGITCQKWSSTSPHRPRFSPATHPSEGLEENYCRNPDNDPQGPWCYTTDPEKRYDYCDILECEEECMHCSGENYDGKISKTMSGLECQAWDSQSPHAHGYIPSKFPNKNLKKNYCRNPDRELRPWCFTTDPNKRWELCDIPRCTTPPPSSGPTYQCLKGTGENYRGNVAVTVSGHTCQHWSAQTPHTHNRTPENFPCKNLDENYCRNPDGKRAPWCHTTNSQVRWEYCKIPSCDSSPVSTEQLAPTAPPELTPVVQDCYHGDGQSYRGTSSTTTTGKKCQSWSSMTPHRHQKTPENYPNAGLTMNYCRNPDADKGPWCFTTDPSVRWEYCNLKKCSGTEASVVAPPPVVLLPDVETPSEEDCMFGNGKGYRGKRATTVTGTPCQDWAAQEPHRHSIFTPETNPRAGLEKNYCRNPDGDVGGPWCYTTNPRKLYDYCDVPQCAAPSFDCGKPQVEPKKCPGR
Plasminogen, sequence (P00747 581-810 limits assumed): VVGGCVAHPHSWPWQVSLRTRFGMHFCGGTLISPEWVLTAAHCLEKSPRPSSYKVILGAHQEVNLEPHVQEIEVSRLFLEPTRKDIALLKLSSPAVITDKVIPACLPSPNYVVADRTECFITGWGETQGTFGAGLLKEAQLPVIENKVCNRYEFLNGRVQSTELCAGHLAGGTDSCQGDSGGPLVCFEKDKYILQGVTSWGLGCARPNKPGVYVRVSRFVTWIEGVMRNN
Data set [7] can be described thus: In vitro anticoagulant activity was measured by activated partial thromboplastin time (APTT) assay. Format: functional.
The nature of data set [8]: In vitro anticoagulant activity was measured by prothrombin time (PT) assay. Format: functional.
Data set [9] can be described thus: In vitro anticoagulant activity was measured by plasma based on thrombin generation (TG) assay. It counts as functional.
For data set [10], the species on record is Oryctolagus cuniculus. The experiment in a line: Plasma concentration required to inhibit thrombosis formation in rabbit. Format: functional, organism-based.
The species named for data set [11] is Oryctolagus cuniculus. The experiment in a line: Inhibition thrombosis formation in rabbit. It counts as functional.
The target in data set [12] is Tissue-type plasminogen activator (Homo sapiens, UniProt P00750). In words: Inhibitory activity against tissue plasminogen activator (tissue plasminogen activator).
Tissue-type plasminogen activator, sequence (P00750 whole entry): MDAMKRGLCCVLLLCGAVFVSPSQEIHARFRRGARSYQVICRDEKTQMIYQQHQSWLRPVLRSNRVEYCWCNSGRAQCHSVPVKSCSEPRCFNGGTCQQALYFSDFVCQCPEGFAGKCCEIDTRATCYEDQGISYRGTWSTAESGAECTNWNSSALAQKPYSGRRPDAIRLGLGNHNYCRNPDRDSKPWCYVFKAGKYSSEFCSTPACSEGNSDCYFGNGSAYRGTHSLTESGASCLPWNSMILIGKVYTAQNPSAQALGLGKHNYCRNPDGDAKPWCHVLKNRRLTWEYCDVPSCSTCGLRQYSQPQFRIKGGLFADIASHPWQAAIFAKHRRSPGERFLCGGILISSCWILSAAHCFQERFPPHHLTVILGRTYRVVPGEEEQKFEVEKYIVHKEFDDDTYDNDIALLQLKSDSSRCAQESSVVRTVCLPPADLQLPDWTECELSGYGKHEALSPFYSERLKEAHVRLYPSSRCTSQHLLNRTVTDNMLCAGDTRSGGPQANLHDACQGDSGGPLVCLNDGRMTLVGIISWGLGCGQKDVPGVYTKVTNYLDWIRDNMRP
The next data set deals with Serine protease 1 (Homo sapiens, UniProt P07477). In words: Inhibitory activity against Trypsin.
Serine protease 1, sequence (P07477 whole entry): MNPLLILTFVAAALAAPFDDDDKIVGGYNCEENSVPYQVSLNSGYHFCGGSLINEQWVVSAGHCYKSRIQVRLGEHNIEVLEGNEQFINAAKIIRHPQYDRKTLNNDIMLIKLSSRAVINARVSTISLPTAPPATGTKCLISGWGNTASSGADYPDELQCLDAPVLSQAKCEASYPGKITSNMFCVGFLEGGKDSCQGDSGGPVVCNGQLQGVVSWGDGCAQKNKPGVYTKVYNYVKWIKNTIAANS
In the next data set the target is Prothrombin (Homo sapiens, UniProt P00734). In words: In vitro inhibitory activity against serine protease thrombin.
A short description of data set [13]: In vivo half life period after intravenous administration in rat. Format: ADME, organism-based.
For data set [14], the target named is T1, Coagulation factor X. The data set is described as §1. The source holds these as a separate data set.
A short description of data set [15]: In vitro anticoagulant activity was measured by plasma based thrombin generation (TG) assay. Format: functional.
In data set [16] the test system is Oryctolagus cuniculus. The experiment in a line: In vivo plasma concentration required to inhibit thrombosis formation in rabbit. It counts as functional, organism-based.
The test system of data set [17] is Oryctolagus cuniculus. In words: In vivo inhibition of thrombosis formation in rabbit. Format: functional.

Molecules are shown by their SMILES. The source made the active and inactive calls. No cut-off for these calls is given here. A value given as a limit tells only on which side of the number the result lay.

Vitamin K-dependent protein C, sequence (P04070 43-197 limits assumed): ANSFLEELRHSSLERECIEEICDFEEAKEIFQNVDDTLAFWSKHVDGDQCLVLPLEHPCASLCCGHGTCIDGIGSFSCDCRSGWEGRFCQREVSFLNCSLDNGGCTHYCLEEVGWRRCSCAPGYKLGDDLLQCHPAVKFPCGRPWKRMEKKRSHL
Vitamin K-dependent protein C, sequence (P04070 212-461 limits assumed): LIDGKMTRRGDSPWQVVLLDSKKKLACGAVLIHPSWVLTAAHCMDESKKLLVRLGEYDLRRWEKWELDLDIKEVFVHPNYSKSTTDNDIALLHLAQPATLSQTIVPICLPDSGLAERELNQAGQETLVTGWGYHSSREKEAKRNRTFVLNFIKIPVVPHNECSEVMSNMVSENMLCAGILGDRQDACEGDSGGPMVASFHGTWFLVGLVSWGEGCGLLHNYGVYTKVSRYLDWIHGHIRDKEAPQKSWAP
T1 sequence (P00742 41-179 limits assumed): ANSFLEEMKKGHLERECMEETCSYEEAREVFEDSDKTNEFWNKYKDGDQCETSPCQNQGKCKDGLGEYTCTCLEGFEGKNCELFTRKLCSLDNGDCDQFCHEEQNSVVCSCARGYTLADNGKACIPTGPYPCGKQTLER
T1 sequence (P00742 235-488 limits assumed): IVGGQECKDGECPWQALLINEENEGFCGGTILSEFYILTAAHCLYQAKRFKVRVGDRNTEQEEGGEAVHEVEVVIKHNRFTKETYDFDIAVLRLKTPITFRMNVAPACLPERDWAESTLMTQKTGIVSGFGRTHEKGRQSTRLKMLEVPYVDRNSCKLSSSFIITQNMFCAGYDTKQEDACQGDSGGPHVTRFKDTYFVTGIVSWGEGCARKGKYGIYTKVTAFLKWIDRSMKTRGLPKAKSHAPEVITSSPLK

In [1], `N=C(N)NCCCC(NC(=O)CN1CCN(S(=O)(=O)c2ccc3c(Cl)cccc3c2)CC1=O)C(=O)c1nccs1` (stereo not drawn) came in with a half-life of 51 min. Moreover, the 50% inhibitory concentration (IC50) in [2] turned out to be 170000 nM; on Coagulation factor X [5], 0.79 nM; in data set [6], 34 nM; against Plasminogen, 1880 nM; in [12], 740 nM; against Serine protease 1 it was 20.5 nM. The compound also registered an IC50 on Prothrombin of 2000 nM. For the same compound, at Coagulation factor X [3], the k_off entry is “inactive”. Moreover, the k_on entry at Coagulation factor X [3] was “inactive”. For the same compound, on Coagulation factor X [4], the Ki was 1.3 nM. The compound further gave a 2x APTT in [7] of 12.5 µM. Further, in data set [8], the 2x PT came out at 12.5 µM. In addition, in data set [9], the “2x TG” value was “inactive”. Also, the Plasma concentration in the data set filed under Oryctolagus cuniculus [10] came out at 0.2 µM. In addition, the Inhibition in the data set listed under Oryctolagus cuniculus [11] stood at 0%.
For the compound `N=C(N)NCCC[C@@H](NC(=O)CN1CCN(S(=O)(=O)Cc2ccccc2)CC1=O)C(=O)c1nccs1`, the half-life in data set [13] turned out to be 10 min. For the same compound, the IC50 in data set [2] is > 180000 nM; against Coagulation factor X [5] it was 4 nM; in data set [6] it was 677 nM; at Plasminogen it was 12100 nM; in data set [12] it was 4010 nM; on Serine protease 1 it was 33 nM. This compound yielded an IC50 against Prothrombin of 390 nM. The same compound showed a k off on Coagulation factor X [14] of 0.013 s⁻¹. This compound yielded a k on on Coagulation factor X [14] of 2.3e+06 M⁻¹ s⁻¹. In addition, the Ki on Coagulation factor X [4] amounted to 1.4 nM. This compound also yielded a 2x APTT in data set [7] of 2.8 µM. The 2x PT in data set [8] was found to be 11.7 µM. In [15], the “2x TG” value is “inactive”. In the data set with Oryctolagus cuniculus [16], this compound came in with a Plasma concentration of 0.4 µM. This compound displayed an Inhibition in the data set with Oryctolagus cuniculus [17] of 35%.
Compound `Cc1c(S(=O)(=O)N2CCN(CC(=O)NC(CCCNC(=N)N)C(=O)c3nccs3)C(=O)C2)sc2ccc(Cl)cc12` (stereo not drawn) came in with a half-life in data set [1] of 5 min. In addition, the IC50 in data set [2] is 169000 nM; against Coagulation factor X [5], 0.51 nM; against Plasminogen, 1300 nM; in data set [12], 9960 nM; against Serine protease 1 it was 20 nM; against Prothrombin it was 751 nM. For the same compound, the inhibitory constant (Ki) at Coagulation factor X [4] is 0.17 nM.
Regarding `Cc1c(S(=O)(=O)N2CCN(CC(=O)NC(CCCN=C(N)N)C(=O)c3nccs3)C(=O)C2)sc2ccc(Cl)cc12` (stereo not drawn), on Coagulation factor X [3], the k_off entry was “inactive” and the k_on entry was “inactive”. In data set [6], the 50% inhibitory concentration (IC50) was determined as 9.4 nM. Also, the 2x APTT in data set [7] was determined as 15.5 µM. In [8], this compound returned a 2x PT of 14.5 µM. Further, the “2x TG” value in [9] amounted to 5.46 µM. Moreover, the Plasma concentration in the data set listed under Oryctolagus cuniculus [10] was found to be 1.6 µM. The same compound registered an Inhibition in the data set filed under Oryctolagus cuniculus [11] of 0%.
